Experimental data: PubChem BioAssay (NCI)
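Compound exposure: 48 hours, 5 concentrations, 96-well plates. The concentration for full growth arrest is given as TGI.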

How the values were obtained:
Experiment in all cases: growth of human tumour cells (NCI), 48 h
UACC-257 melanoma = system: UACC-257 melanoma
UACC-62 melanoma = system: UACC-62 melanoma
M14 melanoma = system: M14 melanoma
CAKI-1 renal = system: CAKI-1 renal
CCRF-CEM leukemia = system: CCRF-CEM leukemia
OVCAR-8 ovarian = system: OVCAR-8 ovarian
SN12C renal = system: SN12C renal
HOP-62 NSCLC = system: HOP-62 NSCLC
A498 renal = system: A498 renal
HT29 colon = system: HT29 colon
NCI-H522 lung = system: NCI-H522 lung
HL-60(TB) leukemia = system: HL-60(TB) leukemia
RPMI-8226 leukemia = system: RPMI-8226 leukemia
A549 NSCLC = system: A549 NSCLC
SW-620 colon = system: SW-620 colon
SNB-19 CNS = system: SNB-19 CNS
LOX IMVI melanoma = system: LOX IMVI melanoma
DMS 273 small cell lung = system: DMS 273 small cell lung
TK-10 renal = system: TK-10 renal
MALME-3M melanoma = system: MALME-3M melanoma
IGROV1 ovarian = system: IGROV1 ovarian
SK-MEL-5 melanoma = system: SK-MEL-5 melanoma
MOLT-4 leukemia = system: MOLT-4 leukemia
786-0 renal = system: 786-0 renal
NCI-H23 lung = system: NCI-H23 lung
UO-31 renal = system: UO-31 renal
HCT-116 colon = system: HCT-116 colon
SK-MEL-28 melanoma = system: SK-MEL-28 melanoma
ACHN renal = system: ACHN renal
RXF 393 renal = system: RXF 393 renal
NCI-H226 lung = system: NCI-H226 lung
SNB-78 CNS = system: SNB-78 CNS
U251 CNS = system: U251 CNS
K-562 leukemia = system: K-562 leukemia
KM20L2 colon = system: KM20L2 colon
OVCAR-4 ovarian = system: OVCAR-4 ovarian
SNB-75 CNS = system: SNB-75 CNS
SK-MEL-2 melanoma = system: SK-MEL-2 melanoma
NCI-H460 lung = system: NCI-H460 lung
SR leukemia = system: SR leukemia
KM12 colon = system: KM12 colon
OVCAR-5 ovarian = system: OVCAR-5 ovarian
SF-539 CNS = system: SF-539 CNS
SF-295 CNS = system: SF-295 CNS
HCC-2998 colon = system: HCC-2998 colon
DMS 114 small cell lung = system: DMS 114 small cell lung
OVCAR-3 ovarian = system: OVCAR-3 ovarian
EKVX NSCLC = system: EKVX NSCLC
HCT-15 colon = system: HCT-15 colon
SK-OV-3 ovarian = system: SK-OV-3 ovarian
M19-MEL melanoma = system: M19-MEL melanoma
SF-268 CNS = system: SF-268 CNS

Compound `CSc1nc(=Nc2ccccc2)sn1-c1ccccc1` has a TGI (UACC-257 melanoma) of 43.9 µM, a TGI (UACC-62 melanoma) of 18 µM and a TGI (M14 melanoma) of 22.5 µM. It also gave a TGI (CAKI-1 renal) of 35.1 µM, a TGI (CCRF-CEM leukemia) of 40 µM and a TGI (OVCAR-8 ovarian) of 46.3 µM. For the same compound, the TGI (SN12C renal) was 39 µM, the TGI (HOP-62 NSCLC) was 31.3 µM and the TGI (A498 renal) was 38.7 µM. For the same compound, the TGI (HT29 colon) was 11.8 µM, the TGI (NCI-H522 lung) was 13.2 µM and the TGI (HL-60(TB) leukemia) was 22.6 µM. For the same compound, the TGI (RPMI-8226 leukemia) was 40.5 µM, the TGI (A549 NSCLC) was 44 µM and the TGI (SW-620 colon) was 26.1 µM. The TGI (SNB-19 CNS) was 56.7 µM, the TGI (LOX IMVI melanoma) was 32 µM and the TGI (DMS 273 small cell lung) was 22.8 µM. The TGI (TK-10 renal) was 60.5 µM, the TGI (MALME-3M melanoma) was 99.1 µM and the TGI (IGROV1 ovarian) was 40 µM. The TGI (SK-MEL-5 melanoma) was 23.2 µM, the TGI (MOLT-4 leukemia) was 96 µM and the TGI (786-0 renal) was 34.4 µM. For the same compound, the TGI (NCI-H23 lung) was 36 µM, the TGI (UO-31 renal) was 39.8 µM and the TGI (HCT-116 colon) was 32.5 µM. It also gave a TGI (SK-MEL-28 melanoma) of 30.2 µM, a TGI (ACHN renal) of 56 µM and a TGI (RXF 393 renal) of 31.3 µM. For the same compound, the TGI (NCI-H226 lung) was 36.2 µM, the TGI (SNB-78 CNS) was 47 µM and the TGI (U251 CNS) was 33.4 µM. The TGI (K-562 leukemia) was 30.1 µM, the TGI (KM20L2 colon) was 28.4 µM and the TGI (OVCAR-4 ovarian) was 23.6 µM. The TGI (SNB-75 CNS) was 55.8 µM, the TGI (SK-MEL-2 melanoma) was 76.9 µM and the TGI (NCI-H460 lung) was 16.9 µM. The TGI (SR leukemia) was 81.1 µM, the TGI (KM12 colon) was 44.2 µM and the TGI (OVCAR-5 ovarian) was 48 µM. It also gave a TGI (SF-539 CNS) of 36.9 µM, a TGI (SF-295 CNS) of 49.2 µM and a TGI (HCC-2998 colon) of 38.1 µM. The TGI (DMS 114 small cell lung) was 16.1 µM, the TGI (OVCAR-3 ovarian) was 38.5 µM and the TGI (EKVX NSCLC) was greater than 100 µM. The TGI (HCT-15 colon) was 30.4 µM, the TGI (SK-OV-3 ovarian) was 62.2 µM and the TGI (M19-MEL melanoma) was 23 µM. For the same compound, the TGI (SF-268 CNS) was 54 µM.
